Laboratory results published in ChEMBL document CHEMBL1201862, “PubChem BioAssay data set” (2004).
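Cells were grown in 96-well plates and exposed to each compound for 48 hours at five concentrations; endpoints were interpolated linearly between bracketing concentrations, or set to the highest concentration if not reached. Here, GI50 denotes the concentration required for 50% inhibition of growth.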 Active and inactive are the calls of the source. Cut-off read from the data, not from the text of the source: active = GI50 up to about 1.1 µM and inactive = higher.

How the values were obtained:
Test in all cases: NCI-60 cell line screen, 48 h
U-251 = test system: U-251
ACHN = test system: ACHN
T47D = test system: T47D
SW-620 = test system: SW-620
KM12 = test system: KM12
DU-145 = test system: DU-145
SNB-19 = test system: SNB-19
HOP-62 = test system: HOP-62
RPMI-8226 = test system: RPMI-8226
Malme-3M = test system: Malme-3M
CAKI-1 = test system: CAKI-1
HL-60 = test system: HL-60
SNB-75 = test system: SNB-75
786-0 = test system: 786-0
HCT-15 = test system: HCT-15
NCI-H226 = test system: NCI-H226
K562 = test system: K562
SK-OV-3 = test system: SK-OV-3
CCRF-CEM = test system: CCRF-CEM
A549 = test system: A549
HCT-116 = test system: HCT-116
SK-MEL-2 = test system: SK-MEL-2
SF-295 = test system: SF-295
NCI-H460 = test system: NCI-H460
OVCAR-5 = test system: OVCAR-5
HOP-92 = test system: HOP-92
NCI-H23 = test system: NCI-H23
OVCAR-4 = test system: OVCAR-4
NCI/ADR-RES = test system: NCI/ADR-RES
IGROV-1 = test system: IGROV-1
UACC-257 = test system: UACC-257
NCI-H522 = test system: NCI-H522
SF-539 = test system: SF-539
MDA-N = test system: MDA-N
BT-549 = test system: BT-549
M14 = test system: M14
OVCAR-3 = test system: OVCAR-3
Hs-578T = test system: Hs-578T
HCC 2998 = test system: HCC 2998
LOX IMVI = test system: LOX IMVI
COLO 205 = test system: COLO 205
UACC-62 = test system: UACC-62
SR = test system: SR
EKVX = test system: EKVX
RXF 393 = test system: RXF 393
A498 = test system: A498
MDA-MB-435 = test system: MDA-MB-435
SK-MEL-28 = test system: SK-MEL-28
SN12C = test system: SN12C
TK-10 = test system: TK-10
PC-3 = test system: PC-3
OVCAR-8 = test system: OVCAR-8
SK-MEL-5 = test system: SK-MEL-5
SF-268 = test system: SF-268
MDA-MB-231 = test system: MDA-MB-231
MOLT-4 = test system: MOLT-4
HT-29 = test system: HT-29
MCF7 = test system: MCF7
UO-31 = test system: UO-31

`CC1=C/C(=N\NC(N)=S)C(C(O)(C(F)(F)F)C(F)(F)F)C(C)(C)C1` (configuration not stated) was tested, and the GI50 (U-251) was > 10000 nM (inactive), the GI50 (ACHN) was > 10000 nM (inactive) and the GI50 (T47D) was > 10000 nM (inactive). For the same compound, the GI50 (SW-620) was > 10000 nM (inactive), the GI50 (KM12) was > 10000 nM (inactive) and the GI50 (DU-145) was > 10000 nM (inactive). For the same compound, the GI50 (SNB-19) was > 10000 nM (inactive), the GI50 (HOP-62) was > 10000 nM (inactive) and the GI50 (RPMI-8226) was > 10000 nM (inactive). The GI50 (Malme-3M) was > 10000 nM (inactive), the GI50 (CAKI-1) was > 10000 nM (inactive) and the GI50 (HL-60) was > 10000 nM (inactive). The GI50 (SNB-75) was > 10000 nM (inactive), the GI50 (786-0) was > 10000 nM (inactive) and the GI50 (HCT-15) was > 10000 nM. For the same compound, the GI50 (NCI-H226) was > 10000 nM (inactive), the GI50 (K562) was > 10000 nM (inactive) and the GI50 (SK-OV-3) was > 10000 nM (inactive). The GI50 (CCRF-CEM) was > 10000 nM (inactive), the GI50 (A549) was > 10000 nM (inactive) and the GI50 (HCT-116) was > 10000 nM (inactive). The GI50 (SK-MEL-2) was > 10000 nM (inactive), the GI50 (SF-295) was > 10000 nM (inactive) and the GI50 (NCI-H460) was > 10000 nM (inactive). For the same compound, the GI50 (OVCAR-5) was > 10000 nM (inactive), the GI50 (HOP-92) was > 10000 nM (inactive) and the GI50 (NCI-H23) was > 10000 nM (inactive). For the same compound, the GI50 (OVCAR-4) was > 10000 nM (inactive), the GI50 (NCI/ADR-RES) was > 10000 nM (inactive) and the GI50 (IGROV-1) was > 10000 nM (inactive). For the same compound, the GI50 (UACC-257) was > 10000 nM (inactive), the GI50 (NCI-H522) was > 10000 nM (inactive) and the GI50 (SF-539) was > 10000 nM (inactive). For the same compound, the GI50 (MDA-N) was > 10000 nM (inactive), the GI50 (BT-549) was > 10000 nM (inactive) and the GI50 (M14) was > 10000 nM (inactive). The GI50 (OVCAR-3) was > 10000 nM (inactive), the GI50 (Hs-578T) was > 10000 nM (inactive) and the GI50 (HCC 2998) was > 10000 nM (inactive). The GI50 (LOX IMVI) was > 10000 nM (inactive), the GI50 (COLO 205) was > 10000 nM (inactive) and the GI50 (UACC-62) was > 10000 nM (inactive). The GI50 (SR) was > 10000 nM (inactive), the GI50 (EKVX) was > 10000 nM (inactive) and the GI50 (RXF 393) was > 10000 nM (inactive). For the same compound, the GI50 (A498) was > 10000 nM (inactive), the GI50 (MDA-MB-435) was > 10000 nM (inactive) and the GI50 (SK-MEL-28) was > 10000 nM (inactive). The GI50 (SN12C) was > 10000 nM (inactive), the GI50 (TK-10) was > 10000 nM (inactive) and the GI50 (PC-3) was > 10000 nM (inactive). For the same compound, the GI50 (OVCAR-8) was > 10000 nM (inactive), the GI50 (SK-MEL-5) was > 10000 nM (inactive) and the GI50 (SF-268) was > 10000 nM (inactive). For the same compound, the GI50 (MDA-MB-231) was > 10000 nM (inactive), the GI50 (MOLT-4) was > 10000 nM (inactive) and the GI50 (HT-29) was > 10000 nM (inactive). The GI50 (MCF7) was > 10000 nM (inactive).

With `Cc1ccc(C(=O)NC2C(=O)NC(C(C)C)C(=O)N3CCCC3C(=O)N(C)CC(=O)N(C)C(C(C)C)C(=O)OC2C)c2c1Oc1c(c(C(=O)NC3C(=O)NC(C(C)C)C(=O)N4CCCC4C(=O)N(C)CC(=O)N(C)C(C(C)C)C(=O)OC3C)c3nc(-c4ccccc4)c(=O)oc3c1C)N2` (configuration not stated) the GI50 (U-251) was < 1 nM (active), the GI50 (ACHN) was 5.15 nM (active) and the GI50 (T47D) was 4.53 nM (active). The GI50 (SW-620) was 4 nM (active), the GI50 (KM12) was < 1 nM (active) and the GI50 (DU-145) was 4.22 nM (active). For the same compound, the GI50 (SNB-19) was < 1 nM (active), the GI50 (HOP-62) was < 1 nM (active) and the GI50 (RPMI-8226) was 1.47 nM (active). The GI50 (Malme-3M) was 3.61 nM (active), the GI50 (CAKI-1) was 9.48 nM (active) and the GI50 (HL-60) was 9.95 nM (active). The GI50 (SNB-75) was 1.01 nM (active), the GI50 (786-0) was < 1 nM (active) and the GI50 (HCT-15) was 37.7 nM. The GI50 (NCI-H226) was 1.63 nM (active), the GI50 (K562) was 3.12 nM (active) and the GI50 (SK-OV-3) was 1.59 nM (active). For the same compound, the GI50 (CCRF-CEM) was 2.55 nM (active), the GI50 (A549) was < 1 nM (active) and the GI50 (HCT-116) was < 1 nM (active). The GI50 (SK-MEL-2) was 1.12 nM (active), the GI50 (SF-295) was < 1 nM (active) and the GI50 (UO-31) was 10.3 nM (active). For the same compound, the GI50 (NCI-H460) was < 1 nM (active), the GI50 (OVCAR-5) was 2.16 nM (active) and the GI50 (HOP-92) was 16 nM (active). The GI50 (NCI-H23) was 1.67 nM (active), the GI50 (OVCAR-4) was 151 nM (active) and the GI50 (NCI/ADR-RES) was 189 nM (active). The GI50 (IGROV-1) was < 1 nM (active), the GI50 (UACC-257) was 8.71 nM (active) and the GI50 (NCI-H522) was 2.4 nM (active). The GI50 (SF-539) was < 1 nM (active), the GI50 (MDA-N) was 3.48 nM (active) and the GI50 (BT-549) was < 1 nM (active). For the same compound, the GI50 (M14) was 23.1 nM (active), the GI50 (OVCAR-3) was 10 nM (active) and the GI50 (Hs-578T) was 1.34 nM (active). The GI50 (HCC 2998) was < 1 nM (active), the GI50 (LOX IMVI) was < 1 nM (active) and the GI50 (COLO 205) was 3.9 nM (active). For the same compound, the GI50 (UACC-62) was < 1 nM (active), the GI50 (SR) was 10 nM (active) and the GI50 (EKVX) was 7.05 nM (active). For the same compound, the GI50 (RXF 393) was 1.61 nM (active), the GI50 (A498) was < 1 nM (active) and the GI50 (MDA-MB-435) was 1.54 nM (active). The GI50 (SK-MEL-28) was < 1 nM (active), the GI50 (SN12C) was < 1 nM (active) and the GI50 (TK-10) was 57.8 nM (active). For the same compound, the GI50 (PC-3) was 2.19 nM (active), the GI50 (OVCAR-8) was < 1 nM (active) and the GI50 (SK-MEL-5) was 1.77 nM (active). For the same compound, the GI50 (SF-268) was < 1 nM (active), the GI50 (MDA-MB-231) was 7.62 nM (active) and the GI50 (MOLT-4) was 2.22 nM (active). For the same compound, the GI50 (HT-29) was < 1 nM (active) and the GI50 (MCF7) was < 1 nM (active).
